Molecules are shown by their SMILES.

One experiment deals with NIH3T3. The experiment is described as follows: MTT cytotoxicity assay (Example 1). Format: cell-based, mouse. From the text: (§1) Human breast cancer cells MDA-MB-435 were purchased from the American Type Culture Collection (Manassas, Va.). The HCT116 p53+/+ and HCT116 p53−/− cells were kindly provided by Dr. Bert Vogelstein (Johns Hopkins Medical Institutions, Baltimore, Md.). The human ovarian carcinoma cell line (HEY) which is naturally resistant to cisplatin, was kindly provided by Dr. Louis Dubeau, University of Southern California (USC) Norris Cancer Center, and NIH3T3 normal mouse fibroblast cells were kindly provided by Dr. Michael Press from USC. HEY and NIH3T3 cells were maintained as monolayer cultures in RPMI, HCT 116 cells in McCoy1s5A media and MDA-MB 435 in DMEM. Media were purchased from (Mediatech, Virginia) and supplemented with 10% fetal bovine serum (Gemini-Bioproducts, Woodland, Calif.), 2 mM L-glutamine and 5% Penicillin/streptomycin from Bio whittaker were purchased from VWR. Cells were incubated at 37° C. in a humidified atmosphere of 5% CO2. To remove the adherent cells from the flask for passaging and counting, cells were washed with PBS without calcium or magnesium, incubated with a small volume of 0.25% trypsin-EDTA solution (Sigma-Aldrich, St. Louis, Mo.) for 5-10 min, and washed with culture medium and centrifuged. All experiments were performed using cells at exponential growth stage. Cells were routinely checked for mycoplasma contamination using a PCR-based assay (Stratagene, Tex., USA).
(§2) Stock solutions (10 mM) of all compounds were prepared in DMSO and stored at −20° C. Further dilutions were made fresh in PBS or cell-culture media right before cell treatment.
(§3) Cytotoxicity was assessed by a 3-(4,s-dimethylthiazol-2-yl)-2,5-diphenyltetrazolium bromide (MTT) assay as previously described.^24 Briefly, cells were seeded in 96-well microtiter plates and allowed to attach overnight. Cells were subsequently treated with continuous exposure to the corresponding drug for 72 h. A MTT solution (at a final concentration of 0.5 mglml) was added to each well, and cells were incubated for 4 h at 37° C. After removal of the medium, DMSO was added and the absorbance was read at 570 nm. All assays were done in triplicate. The IC50 was then determined for each drug from a plot of log (drug concentration) versus percentage of cells killed.
(Formazan colour is commonly taken as a measure of viable cells.)

In another experiment the test system is HEY. The experiment in a line: MTT cytotoxicity assay (Example 1). Format: cell-based, human. The note with it: 72 h.
Source text: as §1, §2, §3

The next experiment concerns MDA-MB-435. The experiment in a line: MTT cytotoxicity assay (Example 1). Format: cell-based, human. Particulars: Homo sapiens, MDA-MB-435, 72 h.
Source text: as §1, §2, §3

The next experiment concerns HCT116 p53+/+. The experiment in a line: MTT cytotoxicity assay (Example 1). Format: cell-based. Particulars: for IC50: MTT, 72 h.
Source text: as §1, §2, §3

The next experiment relates to HCT116 p53−/−. The experiment is described as follows: MTT cytotoxicity assay (Example 1). Format: cell-based. Particulars: for IC50: MTT, 72 h.
Source text: as §1, §2, §3

In experiment [1] the test system is panel of cancer cell lines. The experiment in a line: MTT cytotoxicity, panel of cancer cell lines (Example 1). Format: cell-based. The note with it: other selected cells, dose up to 10.0 μM.
Source text: as §1, with “To remove the adherent cells from the flask for passaging and counting, cells were washed with PBS without calcium or magnesium, incubated with a small volume of 0.25% trypsin-EDTA solution (Sigma-Aldrich, St. Louis, Mo.) for 5-10 min, and washed with culture medium and centrifuged. All experiments were performed using cells at exponential growth stage. Cells were routinely checked for mycoplasma contamination using a PCR-based assay (Stratagene, Tex., USA).” left out
Cytotoxicity was assessed by a 3-(4,s-dimethylthiazol-2-yl)-2,5-diphenyltetrazolium bromide (MTT) assay as previously described.^24 Briefly, cells were seeded in 96-well microtiter plates and allowed to attach overnight. […] After removal of the medium, DMSO was added and the absorbance was read at 570 nm. […] The IC50 was then determined for each drug from a plot of log (drug concentration) versus percentage of cells killed.

A further experiment has as its system HEY cells. The experiment is described as follows: Colony formation assay. Format: cell-based, human. Particulars: several doses. Here is the method:
(§4) Colony formation assays were also performed to confirm the activity of these compounds as described.^1,25 Briefly, cells were plated in 6-well plates at a density of 500 cells/well and allowed to attach. The next day, serial dilutions of the corresponding compounds were added and allowed to incubate for 24 h. After exposure, cells were washed in PBS and cultured in drug-free media until colonies were formed (8-10 days). Cells were subsequently washed, fixed with a 1% glutaraldehyde solution for 30 min, and stained with a solution of crystal violet (2%) for 30 min. After staining, cells were thoroughly washed with water. Colonies were imaged on the ChemiDoc Imaging System (Bio-Rad) and counted using the Quantity One quantitation software package (Bio-Rad). The data reported represent means of at least three independent experiments.

In a further experiment the test system is HCT p53+/+ cells. The experiment in a line: Colony formation assay. Particulars: several doses. The class given is cell-based. Here is the method: as §4

On to `Cc1cccc(Nc2nc3nonc3nc2NN=Cc2ccc(-c3ccccc3Cl)o2)c1C` [Compound 19], for which the IC50 in the experiment with NIH3T3 (Mus musculus, NIH3T3, 72 h) was over 10 µM; in the experiment on HEY it was 5 µM; in the experiment with HEY (Homo sapiens), 3 µM; in the experiment with MDA-MB-435 it was over 10 µM; in the experiment on HCT116 p53+/+ (Homo sapiens, HCT-116, 72 h), 3 µM; in the experiment on HCT116 p53+/+, 2 µM. Also, the IC50 was found to be 6 µM with HCT116 p53−/− (Homo sapiens, HCT-116, 72 h) and 4 µM with HCT116 p53−/−. Further, the values for the toxicity result (with HCT116 p53+/+; with HCT116 p53−/−; in experiment [1]) were “toxic”, “toxic” and “not toxic”, respectively.

As for `Oc1ccc(Br)cc1/C=N/Nc1nc2nonc2nc1Nc1ccc(F)cc1` [Compound 2], the “toxic effect in colony formation assay” value in the experiment with HEY cells and in the experiment on HCT p53+/+ cells was “significant toxic effect” throughout. The IC50 with NIH3T3 (72 h) is 6 ± 1.4 µM; in the experiment on NIH3T3 (Mus musculus, NIH3T3, 72 h) it was 8 µM; with HCT116 p53+/+ (Homo sapiens, HCT-116, 72 h), under 3 µM; with HCT116 p53+/+ it was 1.5 ± 1 µM; in the experiment on HCT116 p53−/− (Homo sapiens, HCT-116, 72 h), under 3 µM; in the experiment on HCT116 p53−/− it was 1.8 ± 0.7 µM.

For orientation: IC50 means the concentration that gives 50% inhibition. A high value points to weaker potency.

(Values after patent US8445677B2, “Substituted pyrimidyl guanidine derivatives having anticancer activity” (University of Southern California, priority 2008, dated 2013).)
